Assay results: article PMC4195943, “A novel small-molecule MRCK inhibitor blocks cancer cell invasion” (Cell Communication and Signaling : CCS, 2014)
Like-named read-outs stand apart in the source and are kept apart here.

Columns and labels:
Assay type in all cases: cell-based, human
SCC12 cells [1] = test: Cell confluence by Incucyte image analysis, SCC12 cells; conditions: 2 μM, 21 hours
Experimental: (§1) All results are shown as mean ± standard error of n = 3 independent replicates. […] Readings were compared to the Alamar Blue metabolism in DMSO treated cells that were used as the viability standard of 100% for each replicate experiment. […] (F) Number of invading cells was determined in 5 random fields for each condition for each separate replicate experiment. All results are shown as mean ± standard error of n ≥ 3 independent replicates.
MDA MB 231 or SCC12 cells were plated in a 96 well plate and cultured for 24 hours. […] Pictures were taken every 3 hours and confluence was measured using the IncuCyte analysis software. AlamarBlue (Invitrogen, DAL 1025) was added to the medium and the cells were cultured for an additional day. Absorbances at 570 nm and at 600 nm were measured to assess cell health.

MDA-MB-231 cells = test: Matrigel invasion (scratch wound closure, Incucyte) of MDA-MB-231 cells
Experimental: (A) MDA-MB-231 human breast cancer cells were plated in 96 well plates, then 24 hours later a ~800 μm scratch wound was created. […] All results are shown as mean ± standard error of n ≥ 4 independent replicates. […] Readings were compared to the Alamar Blue metabolism in DMSO treated cells that were used as the viability standard of 100% for each replicate experiment. All results are shown as mean ± standard error of 3 independent replicates.
MDA-MB-231 cells were plated at 30,000 cells per well in Image Lock 96 well plates (Essen BioScience) in 100 μL complete DMEM medium and after allowing cells to settle for 20 min were incubated overnight at 37°C in 5% CO2 in a humidified incubator. Matrigel (BD Biosciences) was thawed overnight at 4°C, diluted 1:1 with PBS and 100 μL pipetted over cells that had been scratched with the WoundMaker tool (Essen BioScience). Plates were incubated for 1 h, then appropriately diluted drugs added in 100 μL media to achieve final concentrations. Plates were scanned with an Incucyte Zoom (Essen BioSciences) according to manufacturer’s instructions at 3 hour intervals. Cell viability was determined with AlamarBlue (Invitrogen, DAL 1025), which was added to the medium and cells cultured for 6 hours. Absorbances at 570 nm and at 600 nm were measured to assess metabolic activity.

[2] = test system: MLC phosphorylation in MDA-MB-231 cells; test: MLC phosphorylation in parental MDA-MB-231 breast cancer cells (quantitative western blot); conditions: for EC50: parental MDA-MB-231, 30 minutes treatment, read-out: EC50, inhibition of MLC phosphorylation; for pMLC on western blots at higher concentrations: parental MDA-MB-231, higher concentrations
Experimental: All results are shown as mean ± standard error of n = 3 independent replicates. […] After fixation and permeabilization, cells were stained with phalloidin to visualize filamentous actin structures and pMLC (S19) primary antibody as indicated.
Cell lysates were prepared as described previously. For pMLC western blots, cells were lysed in a 1% (w/v) SDS, 50 mM Tris pH 7.5 buffer and lysates were passed through QIAshredder columns (Qiagen, 79654). Alternatively, for pMLC western blots lysates were prepared in lysis buffer with 50 mM Tris (pH7.5), 0.5% (w/v) SDS, supplemented with Complete Protease and PhosSTOP inhibitors (Roche). Whole cell lysates were separated by SDS-PAGE, transferred to Protran nitrocellulose membranes (Whatman), probed with primary antibodies and appropriate IR dye-conjugated secondary antibodies. Blots were visualized using a Licor Odyssey according to manufacturer’s instructions. Antibodies used in this study were: MRCKα (611584) from BD Transduction Laboratories; MRCKβ (H00009578-A01) from Abnova; MRCKα/β (MANDM1 6G8) from Glenn Morris (Centre for Inherited Neuromuscular Disease, Oswestry UK); MRCL3/MRLC2/MYL9 (sc-28329) from Santa Cruz Biotechnology; pMLC2 Thr18/Ser19 (3674) from Cell Signaling Technology. ROCK1/2 (07–1458) from Millipore; TetR (Clone 9G9; 631132) from Clontech; α-Tubulin (TU-02; sc-8035) from Santa Cruz Biotechnology; ERK2 from Chris Marshall (Institute of Cancer Research, London UK). Secondary antibodies used were: goat anti-mouse IgG Dylight 800 from Thermo Scientific (35521), goat anti rabbit IgG AlexaFluor 680 from Invitrogen (A12076), goat anti-rabbit IgG IR Dye 800 CW (926–32211) and goat anti-mouse IgG IR Dye 680 (926–68020) were from LI-COR Biosciences.

SCC12 cells [3] = test: Organotypic collagen invasion of SCC12 cells; conditions: 2 μM, ten days
Experimental: as §1
SCC12 invasion assays were performed essentially as described in [12]. HN-CAF cells were grown for 5 days in a Matrigel-collagen gel, covered with DMEM + 10%FBS medium, and allowed to remodel the matrix. The gel consisted of: 280 μL of DMEM + 10% FBS, 100 μL FBS, 20 μL 1 M Hepes pH 7.5 and approximately 200 μL of Matrigel (BD Biosciences, 354234), 400 μL of collagen type 1 (BD Biosciences, 354249) and 5×10^5 HN-CAF cells. Puromycin was subsequently added to the medium at 10 μg/ml for 3 days to remove HN-CAF cells. The gels were washed in SCC medium 3 times for 2 hours and SCC12 cells were plated on the surface of the gel and left to adhere overnight. […] The gels were fixed overnight in 4% PFA and 1% glutaraldehyde in PBS, washed in PBS and processed for histology.

Question: What does the source list for `C[C@@H](N)[C@H]1CC[C@H](C(=O)Nc2ccncc2)CC1` [Y27632, reference compound]?
Answer: cell confluence (SCC12 cells [1]): did not significantly differ between treatments; inhibition of wound closure (MDA-MB-231 cells; 10 μM): ~ 40%; inhibition of invasion (MDA-MB-231 cells; 30 μM, 24 h): ≤ 50%; EC50 [2]: 407 nM; pMLC on western blots at higher concentrations [2]: unable to completely inhibit pMLC; SCC12 invasion into three dimensional collagen matrix (SCC12 cells [3]): did not significantly affect

Question: Which cell confluence (SCC12 cells [1]) does the source give for `O=C(Nc1cn[nH]c1-c1ccccn1)c1nn(C2CCNCC2)cc1Cl` [BDP5290, 4-chloro-1-(4-piperidyl)-N-[5-(2-pyridyl)-1H-pyrazol-4-yl]pyrazole-3-carboxamide] here?
Answer: did not significantly differ between treatments

Question: And the “inhibition of MDA-MB-231 invasion” value (MDA-MB-231 cells; 10 μM)?
Answer: virtually complete inhibition

Question: And the EC50 (MDA-MB-231 cells; Homo sapiens, MDA-MB-231, 24 h, read-out: EC50, inhibition of Matrigel invasion (wound closure))?
Answer: 440 nM

Question: And the inhibition at 1 µM (MDA-MB-231 cells; Homo sapiens, MDA-MB-231, 1 μM)?
Answer: > 60%

Question: What about the EC50 ([2]; Homo sapiens, 0.5 h) of the same compound?
Answer: 316 nM

Question: What about the “pMLC on western blots at higher concentrations” value [2] of the same compound?
Answer: reduced pMLC to undetectable levels

Question: And the “SCC12 invasion into three dimensional collagen matrix” value (SCC12 cells [3])?
Answer: profound effect
